From ChEMBL document CHEMBL3879889, “Compositions and methods for treating cancer” (2009)
Calls of active or inactive are those of the source. The calls are words filed in the database; no cut-off is given here.

How the values were obtained:
3Y1 [1] = test: Antimigratory activity in rat 3Y1 cells transfected with pBLAST E6-16 at 40 uM after 24 hrs; format: functional, cell-based
[2] = Inhibition of HPV E6 protein interaction with shank1 (unknown origin)
[3] = Downregulation of E6 protein expression in HPV18 E6 transformed human HeLa cells at 60 to 120 uM after 24 hrs by Western blot method; format: functional, cell-based
[4] = Cytotoxicity against HPV negative human C33A assessed as cell viability at 60 uM treated 24 hrs post plating by WST-1 assay relative to control; set-up: species or system C-33-A; conditions: C33A cells (HPV negative), read-out: Activity
[5] = Inhibition of HPV E6 protein interaction with MAGI-1 PDZ domain1 (unknown origin)
[6] = Inhibition of HPV E6 protein interaction with PSD95 PDZ domain1 (unknown origin)
3Y1 [7] = test: Antiproliferative activity in rat 3Y1 cells transfected with pBLAST E6-16 at 40 uM after 24 to 96 hrs; format: functional, cell-based
[8] = Cytotoxicity against HPV E6 transformed human HeLa cells assessed as cell viability at 60 uM treated 24 hrs post plating by WST-1 assay relative to control; format: functional; conditions: read-out: Activity
[9] = Antiproliferative activity in rat 3Y1 cells transfected with pBLAST at 40 uM after 24 to 96 hrs; format: cell-based; conditions: 3y1, 40 µM
[10] = Inhibition of HPV E6 protein interaction with Tip1 (unknown origin)
[11] = Inhibition of HPV E6 protein interaction with PSD95 PDZ domain3 (unknown origin)
[12] = Upregulation of p53 expression in HPV18 E6 transformed human HeLa cells at 80 to 120 uM after 24 hrs by immunocytochemical analysis relative to control; format: functional, cell-based
[13] = Inhibition of HPV E6 protein interaction with PSD95 PDZ domain2 (unknown origin)
HeLa = test: Induction of morphological changes in HPV18 E6 transformed human HeLa cells assessed as cell shrinkage at 80 to 120 uM after 24 hrs; format: functional, cell-based
[14] = Cytotoxicity against HPV E6 transformed human SiHa cells assessed as cell viability at 60 uM treated 24 hrs post plating by WST-1 assay relative to control; format: functional; conditions: read-out: Activity

Q: Which results are given for `CCc1cccc2c(C(c3ccccc3OCC(=O)O)c3c[nH]c4c(CC)cccc34)c[nH]c12`?
A: Activity (3Y1 [1]): Active; IC50 [2]: > 250 µM; Activity [3]: Active; viability at 24 h, 60 µM [4]: 104%; IC50 [5]: 86.9 µM; IC50 [6]: > 250 µM; Activity (3Y1 [7]): Active; viability at 60 µM [8]: 70.1%; Activity [9]: Non-Toxic; IC50 [10]: > 250 µM; IC50 [11]: > 250 µM; Activity [12]: Active; IC50 [13]: > 250 µM; Activity (HeLa): Active; viability at 60 µM [14]: 74.3%
